Like-named read-outs stand apart in the source and are kept apart here.
How the values were obtained:
[1] = system: Brown plant hoppers and Green plant hoppers; assay: Treated paddy leaf bioassay, larval mortality, Colby synergism (Examples 13-14); type: in vivo
Experimental: In this evaluation, Brown plant hoppers and Green plant hoppers are obtained from laboratory colonies. Paddy leaves are immersed in 1:1 v/v, acetone/water solutions of the test compound, or solution of a combination of the test compounds for a period of about 4 seconds. Following immersion, leaves are allowed to air-dry for 2-3 hours. Plastic bioassay trays containing multiple open-faced wells (4.0×4.0×2.5 cm) are used. Cut portions of a treated leaf, a moistened cotton dental wick and a single third-instar larva are placed into each well. These wells are covered with an adhesive vented clear plastic sheet which is held under constant fluorescent light at about 30° C. for a predetermined period of time. Larval mortality/morbidity is evaluated at 5 days after treatment. All treatments are replicated 3-4 fold in a randomized complete block design with 15-30 larvae per treatment. Using conventional log-probit analysis, the LC50 of each treatment is determined.
Synergism can be calculated by using the Colby's method i.e. the expected (or predicted) response of the combination is calculated by taking the product of the observed response for each individual component of the combination when applied alone divided by 100 and subtracting this value from the sum of observed response for each component when applied alone. Synergism of the combination is then determined by comparing the observed response of the combination to the expected (or predicted) response as calculated from the observed response of each individual component alone. If the observed response of the combination is greater than the expected (or predicted) response, then the combination is said to be synergistic and falls within the definition of synergistic effect. (Colby, S. R., Weeds, 1967(15), p. 20-22)

rats [2] = conditions: cited from earlier work
[3] = cited from earlier work
flies = conditions: cited from earlier work
[4] = cited from earlier work; remark: listed apart in the source
domestic fowl = conditions: cited from earlier work
[5] = cited from earlier work; for pH of optimum stability: more stable in acid than in alkaline media
rats [6] = conditions: cited from earlier work; remark: listed apart in the source
rabbits = conditions: cited from earlier work
[7] = in vivo; cited from earlier work
rats [8] = conditions: cited from earlier work; remark: listed apart in the source
Japanese quail = conditions: cis/trans ratio of 40:60; cited from earlier work
chicken = conditions: cis/trans ratio of 40:60; cited from earlier work
mice = conditions: cited from earlier work
[9] = system: cockroaches and other crawling insets; conditions: 100 mg a.i. (as WP)/m^2; cited from earlier work

CC1(C)C(C=C(Cl)Cl)C1C(=O)OC(C#N)c1cccc(Oc2ccccc2)c1 (racemic) [Cypermethrin, (RS)-α-cyano-3-phenoxybenzyl (1RS, 3RS; IRS, 3SR)-3-(2,2-dichlorovinyl)-2,2-dimethyl cyclopropane carboxylate]
Observed Mortality % ([1]; Table 2, Cypermethrin 80 ppm alone): 52.5%
Observed Mortality % ([1]; Table 2, Cypermethrin 85 ppm alone): 60%
Observed Mortality % ([1]; Table 2, Cypermethrin 90 ppm alone): 70%
Observed Mortality % ([1]; Table 3, Cypermethrin 80 ppm alone): 60.0%
Observed Mortality % ([1]; Table 3, Cypermethrin 85 ppm alone): 65%
Observed Mortality % ([1]; Table 3, Cypermethrin 90 ppm alone): 72.0%

CC(C)[C@@H](C(=O)O[C@@H](C#N)c1cccc(Oc2ccccc2)c1)c1ccc(Cl)cc1 (racemic) [Fenvalerate, (RS)-α-cyano-3-phenoxybenzyl (RS)-2-(4-chlorophenyl)-3-methylbutyrate]
acute oral LD50 (rats [2]; rats): 451 mg/kg
solubility in water ([3]; 20° C.): < 1 µg/mL
duration of control of flies in cattle sheds (flies; 110 mg/aquare meter wall): 60 days
Solubility in acetone, chloroform, cyclohexanone, ethanol, xylene ([4]; 23° C.): > 1 kg/kg
Solubility in hexane ([4]; 23° C.): 155 g/kg
acute oral LD50 (domestic fowl): > 1600 mg/kg
pH of optimum stability [5]: 4
Acute percutaneous LD50 (rats [6]; rats): > 5000 mg/kg

O=[N+]([O-])NC1=NCCN1Cc1ccc(Cl)nc1 [Imidacloprid, 1-(6-chloro-3-pyridylmethyl)-N-nitroimidazolidin-2-yldeneamine]
Observed Mortality % ([1]; Table 2, Imidacloprid 24 ppm alone, 5 days after treatment): 55.00%
Observed Mortality % ([1]; Table 2, Imidacloprid 27 ppm alone): 69.25%
Observed Mortality % ([1]; Table 2, Imidacloprid 30 ppm alone): 72.10%
irritation to skin and eyes (rabbits; rabbit, in vivo): Non irritating
skin sensitisation [7]: Not a skin sensitiser
inhalation LC50 (4 h) (rats [8]; female rats, aerosol): > 5323 mg/m^3 air
solubility in n.hexane ([4]; 20° C.): < 100 µg/mL
stability to hydrolysis ([5]; pH 5): Stable
Acute percutaneous LD50 (24 h) (rats [6]; rats, 24 h): > 5000 mg/kg

CC1(C)C(C=C(Cl)Cl)C1C(=O)OCc1cccc(Oc2ccccc2)c1 (stereo not drawn) [Permethrin, 3-phenoxybenzyl(1RS,3 RS; 1 RS, 3SR)-3-(2,2-dichlorovinyl)-2,2-dimethylcyclopropanecarboxylate]
Typical oral LD50 (rats [2]; rats, cis/trans ratio of 40:60): 430 to 4000 mg/kg
Typical oral LD50 (Japanese quail): > 13500 mg/kg
Typical oral LD50 (chicken): > 300 mg/kg
duration of residual control of biting flies in animal housing (flies; 200 mg a.i. (as EC)/square meter wall or 30 mg a.i. (as WP)/m^2 wall): < 60 days
Typical oral LD50 (mice; mice, cis/trans ratio of 40:60): 540 to 2690 mg/kg
duration of control of cockroaches and other crawling insets [9]: > 120 days
Solubility in Xylene ([4]; 25° C.): ≥ 1 kg/kg
Solubility in hexane ([4]; 25° C.): > 1 kg/kg
Solubility in methanol ([4]; 25° C.): 258 g/kg
stability to heat ([5]; 50° C.): ≥ 2 years
photochemical stability, in words ([5]; laboratory studies): Some photochemical degradation
pH of optimum stability [5]: 4

(E)-N′-[(6-chloro-3-pyridyl)methyl]-N-cyano-N-methylacetamidine [Acetamiprid]
acute oral LD50 (rats [2]; female rats): 146 mg/kg
acute oral LD50 (rats [2]; male rats): 217 mg/kg
Observed Mortality % ([1]; Table 3, Acetamiprid 24 ppm alone): 47.30%
Observed Mortality % ([1]; Table 3, Acetamiprid 27 ppm alone): 69.25%
Observed Mortality % ([1]; Table 3, Acetamiprid 30 ppm alone): 72.1%
solubility in water ([3]; 25° C.): 4200 µg/mL
irritation to skin and eyes (rabbits; rabbits): Non irritating
acute oral LD50 (mice; female mice): 184 mg/kg
acute oral LD50 (mice; male mice): 198 mg/kg
inhalation LC50 (4 h) (rats [8]; male and female rats): > 0.29 mg/L
solubility in organic solvents, in words ([4]; acetone, methanol, ethanol, dichloromethane, chloroform, acetonitrile and tetrahydrofuron): Soluble
stability in buffered solutions ([5]; pH 4,5,7): Stable
stability in buffered solutions ([5]; pH 9 and 45° C.): Degraded slowly
stability under sunlight ([5]; sunlight): Stable
Acute percutaneous LD50 (rats [6]; male and female rats): > 2000 mg/kg

From patent publication US7531187B2, “Synergistic insecticidal composition containing chloronicotynyle and pyrethroids compounds” (United Phosphorus, Ltd., priority 2004, dated 2009)
